The results in this text go back to patent US8742106B2 (Novartis AG, priority 2009, dated 2014).

In data set [1] the target is T1, human orexin 1 receptors (Homo sapiens (Human), UniProt O43613). The data set can be described thus: Radioligand Binding Assay I ([125I]orexin A competition, cell membranes). The note with it: read-out: binding I hOx1R Kd. As to the method: (§1) Radioligand Binding Assay I
(§2) For crude cell membrane preparations, cells (CHO, Chinese hamster ovary or HEK, human embryonic kidney) expressing human orexin 1 or human orexin 2 receptors, were washed with HEPES (10 mM, pH 7.5), scraped off the culture plates with the same buffer, and centrifuged at 4° C. for 5 min at 2500×g. The cell pellet was either stored at −80° C. or used directly. Before the experiments, cell membranes were re-suspended in binding assay buffer (10 mM HEPES, 0.5% (w/v) bovine serum albumin, pH 7.5) by homogenisation with a Polytron homogeniser at 50 Hz for 20 s. Cell membranes were also used as made available by commercial providers.
(§3) In initial saturation experiments (to calculate Bmax), cell homogenates (150 μl) were incubated with 25-300 pM of the radioligand ([^125I]orexin A, 50 μl), 8 concentrations in triplicates in the presence or absence Orexin A (1 μM, 50 μl) to define non specific binding. Bound radioactivity was measured, and data were analysed with the program XLFIT or Graphpad Prism. Protein concentration was determined according to the Bradford/BioRad Protein Assay Kit.
(§4) In competition experiments, cell homogenates (150 μl) were incubated in assay buffer (10 mM HEPES, pH 7.5, 0.5% (w/v) bovine serum albumin, 5 mM MgCl2, 1 mM CaCl2, and tween 0.05%) for 1 h at room temperature with about 100 pM of the radioligand ([^125I]orexin A, 2100 Ci/mmole, 50 μl), and with various concentrations of compounds of the invention (50 μl) in triplicates; non-specific binding was determined in the presence of Orexin A (1 μM). Reactions were terminated by vacuum filtration, 3 washes of ice cold wash buffer (Tris-HCl pH 7.4/10 mM, with NaCl 154 mM).

Data set [2] addresses T2, human orexin 2 receptors (Homo sapiens (Human), UniProt O43614). The description is as above. To be noted: read-out: binding I hOx2R Kd. As to the method:
as §1, §2, §3, §4

Data set [3] has as its target T1, human orexin 1 receptors. The data set can be described thus: Calcium Accumulation in Cells (FLIPR), antagonism of orexin A. The note with it: antagonism of orexin A, Cheng-Prusoff corrected; read-out: FLIPR hOx1R Ki. Type of data set: cell-based.
For data set [4], the target named is T2, human orexin 2 receptors. Described as above. The format is cell-based. The note with it: antagonism of orexin A, Cheng-Prusoff corrected; read-out: FLIPR hOx2R Ki. The method, boiled down:
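Cells expressing human orexin 2 receptor, loaded with Fluo4-AM (2 μM) plus probenecid (0.1 mM) for 1 h, then washed. Antagonism read as inhibition of the orexin A calcium fluorescence signal (FLIPR).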

Data set [5] concerns the target T1, human orexin 1 receptors. Kind of data set: Radioligand Binding Assay II ([3H]-SB649868 competition, cell membranes). To be noted: read-out: binding II hOx1R Kd. A digest of the protocol: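 Membranes from CHO or HEK cells expressing human orexin 1 or orexin 2 receptors incubated 1 h at room temperature with about 1 nM [3H]-SB649868 and compound (triplicates) in HEPES pH 7.5 buffer with BSA, MgCl2, CaCl2, tween. Nonspecific binding defined with 10 μM almorexant; filtration read-out, Kd reported.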

In data set [6] the target is T2, human orexin 2 receptors. The data set is described as above. The note with it: read-out: binding II hOx2R Kd. A digest of the protocol:
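Competition binding used membranes from CHO or HEK cells expressing human orexin 2 receptor, incubated 1 h at room temperature with ~1 nM [3H]-SB649868 in 10 mM HEPES pH 7.5, 0.5% BSA, 5 mM MgCl2, 1 mM CaCl2, 0.05% tween. Nonspecific binding was defined with 10 μM almorexant, and bound activity was measured after filtration.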

pKd, pKi: −log10 of the molar value.

T2 sequence (O43614 whole entry): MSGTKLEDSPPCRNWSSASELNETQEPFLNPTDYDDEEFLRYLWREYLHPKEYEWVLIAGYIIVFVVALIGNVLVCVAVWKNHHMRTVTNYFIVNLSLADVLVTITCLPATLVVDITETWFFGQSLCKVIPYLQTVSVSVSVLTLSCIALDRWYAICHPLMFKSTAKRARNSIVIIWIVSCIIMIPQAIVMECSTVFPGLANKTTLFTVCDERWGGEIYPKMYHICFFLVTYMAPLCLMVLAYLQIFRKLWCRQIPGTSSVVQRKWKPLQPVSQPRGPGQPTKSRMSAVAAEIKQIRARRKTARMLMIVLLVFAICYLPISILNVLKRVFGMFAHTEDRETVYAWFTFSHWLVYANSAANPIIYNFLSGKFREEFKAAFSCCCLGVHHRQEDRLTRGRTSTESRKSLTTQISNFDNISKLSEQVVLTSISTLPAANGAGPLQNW
T1 sequence (O43613 whole entry): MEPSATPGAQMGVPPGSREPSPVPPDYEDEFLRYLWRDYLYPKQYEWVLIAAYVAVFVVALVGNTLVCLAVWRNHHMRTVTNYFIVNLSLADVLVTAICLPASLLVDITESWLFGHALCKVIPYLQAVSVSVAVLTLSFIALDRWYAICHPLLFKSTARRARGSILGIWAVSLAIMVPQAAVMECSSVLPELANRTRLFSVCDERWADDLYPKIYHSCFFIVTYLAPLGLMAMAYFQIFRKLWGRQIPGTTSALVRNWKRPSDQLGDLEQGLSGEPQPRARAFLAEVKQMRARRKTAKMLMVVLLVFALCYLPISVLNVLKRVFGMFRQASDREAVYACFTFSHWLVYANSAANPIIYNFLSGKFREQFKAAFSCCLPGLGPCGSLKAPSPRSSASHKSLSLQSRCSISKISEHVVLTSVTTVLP

As to `COc1ccc(C(C)NC(=O)COc2cc(C(F)(F)F)c3c(-c4ccccc4)nn(C)c3n2)cc1` (stereo not shown) [Example 1.45, N-(1-(4-methoxyphenyl)ethyl)-2-(1-methyl-3-phenyl-4-(trifluoromethyl)-1H-pyrazolo[3,4-b]pyridin-6-yloxy)acetamide], the pKd at human orexin 1 receptors [1] is 7.49; on human orexin 2 receptors [2] it was 8.15. The pKi at human orexin 1 receptors [3] is 7.54; on human orexin 2 receptors [4], 8.70.
In turn, `Cc1n[nH]c(C)c1[C@H](C)NC(=O)COc1cc(C(F)(F)F)c2c(-c3ccccc3)nn(C)c2n1` [Example 1.6, (S)—N-(1-(3,5-dimethyl-1H-pyrazol-4-yl)ethyl)-2-(1-methyl-3-phenyl-4-(trifluoromethyl)-1H-pyrazolo[3,4-b]pyridin-6-yloxy)acetamide] yielded a melting point of 145 to 147 °C.
With `Cc1ccc(CNC(=O)COc2cc(C(F)(F)F)c3c(-c4ccccc4)nn(C)c3n2)cc1` [Example 1.32, 2-(1-methyl-3-phenyl-4-(trifluoromethyl)-1H-pyrazolo[3,4-b]pyridin-6-yloxy)-N-(4-methylbenzyl)acetamide], the values for the pKd at human orexin 1 receptors [1] and on human orexin 2 receptors [2] were 5.58 and 5.86, respectively. Besides, the pKi at human orexin 1 receptors [3] is 6.07; at human orexin 2 receptors [4], 6.94.
Taken in the same sequence, the figures for `COc1ccc(CNC(=O)COc2cc(C(F)(F)F)c3c(-c4ccccc4)nn(C)c3n2)cc1` [Example 1.41, N-(4-methoxybenzyl)-2-(1-methyl-3-phenyl-4-(trifluoromethyl)-1H-pyrazolo[3,4-b]pyridin-6-yloxy)acetamide] were 5.91, 6.39, 6.10 and 7.08.
As for `COc1cccc(C(C)NC(=O)COc2cc(C(F)(F)F)c3c(-c4ccccc4)nn(C)c3n2)c1` (stereo not shown) [Example 1.46, N-(1-(3-methoxyphenyl)ethyl)-2-(1-methyl-3-phenyl-4-(trifluoromethyl)-1H-pyrazolo[3,4-b]pyridin-6-yloxy)acetamide], the pKd at human orexin 1 receptors [1] was 7.38; at human orexin 2 receptors [2] it was 7.00. Moreover, the pKi at human orexin 1 receptors [3] was 7.70; on human orexin 2 receptors [4], 7.59.
For the compound `CC(NC(=O)COc1cc(C(F)(F)F)c2c(-c3ccccc3)nn(C)c2n1)c1ccccc1` (stereo not shown) [Example 1.18, 2-(1-methyl-3-phenyl-4-(trifluoromethyl)-1H-pyrazolo[3,4-b]pyridin-6-yloxy)-N-(1-phenylethyl)acetamide], the values for the pKd on human orexin 1 receptors [1] and at human orexin 2 receptors [2] were 7.44 and 7.20, respectively. For the same compound, the pKi at human orexin 1 receptors [3] was 7.32; on human orexin 2 receptors [4] it was 7.59.
In the case of `C[C@H](NC(=O)COc1cc(C(F)(F)F)c2c(-c3ccccc3)nn(C)c2n1)c1ccccc1` [Example 1.17, (S)-2-(1-methyl-3-phenyl-4-(trifluoromethyl)-1H-pyrazolo[3,4-b]pyridin-6-yloxy)-N-(1-phenylethyl)acetamide], the pKd on human orexin 1 receptors [1] was 7.19; at human orexin 2 receptors [2] it was 6.92. In addition, the negative-log Ki (pKi) is 6.76 on human orexin 1 receptors [3] and 6.97 on human orexin 2 receptors [4].
Taken in the same sequence, the figures for `COc1ccc(-c2nn(C)c3nc(OCC(=O)N[C@@H](C)c4ccccc4)cc(C(F)(F)F)c23)cc1` [Example 1.20] were 6.52, 6.73, 6.42 and 7.12.
In the same order, the values of `C[C@H](NC(=O)COc1cc(C(F)(F)F)c2c(-c3ccc(F)cc3)nn(C)c2n1)c1ccccc1` [Example 1.23, (S)-2-(3-(4-fluorophenyl)-1-methyl-4-(trifluoromethyl)-1H-pyrazolo[3,4-b]pyridin-6-yloxy)-N-(1-phenylethyl)acetamide] are 6.88, 6.56, 6.89 and 6.87.
`C[C@H](CNC(=O)COc1cc(C(F)(F)F)c2c(-c3ccccc3)nn(C)c2n1)c1ccccc1` [Example 1.5, (S)-2-(1-methyl-3-phenyl-4-(trifluoromethyl)-1H-pyrazolo[3,4-b]pyridin-6-yloxy)-N-(2-phenylpropyl)acetamide]: the melting point was 91 to 93 °C. Further, at human orexin 1 receptors [1], the negative logarithm of the Kd (pKd) is 5.94. On human orexin 2 receptors [2], the negative-log Kd (pKd) was 7.12. Also, the pKi at human orexin 1 receptors [3] is 6.06. Besides, on human orexin 2 receptors [4], the pKi is 7.44.
Regarding `COc1ccccc1-c1nn(C)c2nc(OCC(=O)N[C@@H](C)c3ccccc3)cc(C(F)(F)F)c12` [Example 1.49, (S)-2-(3-(2-methoxyphenyl)-1-methyl-4-(trifluoromethyl)-1H-pyrazolo[3,4-b]pyridin-6-yloxy)-N-(1-phenylethyl)acetamide], the results for the negative logarithm of the Kd (pKd) at human orexin 1 receptors [1] and at human orexin 2 receptors [2] were 8.22 and 6.15, respectively. For the same compound, the negative logarithm of the Ki (pKi) was 7.82 on human orexin 1 receptors [3] and 6.61 at human orexin 2 receptors [4].
As for `COc1ccc([C@H](C)NC(=O)COc2cc(C(F)(F)F)c3c(-c4ccccc4)nn(C)c3n2)cc1` [Example 1.4, (S)—N-(1-(4-methoxyphenyl)ethyl)-2-(1-methyl-3-phenyl-4-(trifluoromethyl)-1H-pyrazolo[3,4-b]pyridin-6-yloxy)acetamide], the melting point was in the range of 172 to 174 °C. Further, at human orexin 1 receptors [1], the pKd was 8.10. Moreover, the negative logarithm of the Kd (pKd) at human orexin 2 receptors [2] is 8.40. Moreover, the negative-log Kd (pKd) on human orexin 1 receptors [5] is 8.15. At human orexin 2 receptors [6], the negative logarithm of the Kd (pKd) was 8.52. In addition, on human orexin 1 receptors [3], the negative-log Ki (pKi) is 7.85. The pKi at human orexin 2 receptors [4] is 8.70.
The compound `C[C@H](NC(=O)COc1ccc2c(-c3ccccc3)nn(C)c2n1)c1ccccc1` [Example 2.1, (S)-2-(1-methyl-3-phenyl-1H-pyrazolo[3,4-b]pyridin-6-yloxy)-N-(1-phenylethyl)acetamide] returned a melting point of 55 to 56 °C. Also, the negative-log Ki (pKi) at human orexin 1 receptors [3] is 6.31. Further, the negative-log Ki (pKi) on human orexin 2 receptors [4] is 6.06.
Turning to `Cc1ccc(-c2nn(C)c3nc(OCC(=O)N[C@@H](C)c4ccccc4)cc(C(F)(F)F)c23)cc1` [Example 1.48, (S)-2-(1-methyl-3-p-tolyl-4-(trifluoromethyl)-1H-pyrazolo[3,4-b]pyridin-6-yloxy)-N-(1-phenylethyl)acetamide], the pKd at human orexin 1 receptors [1] was 6.31; at human orexin 2 receptors [2], 6.67. Further, the pKi is 6.75 on human orexin 1 receptors [3] and 7.12 on human orexin 2 receptors [4].
For `Cn1nc(-c2ccccc2)c2c(C(F)(F)F)cc(OCC(=O)N[C@H]3CCc4ccccc43)nc21` [Example 1.3, (S)—N-(2,3-dihydro-1H-inden-1-yl)-2-(1-methyl-3-phenyl-4-(trifluoromethyl)-1H-pyrazolo[3,4-b]pyridin-6-yloxy)acetamide], the melting point was 203 to 205.2 °C. In addition, the pKd on human orexin 1 receptors [1] was 6.46. For the same compound, on human orexin 2 receptors [2], the negative-log Kd (pKd) is 6.89. For the same compound, the negative-log Ki (pKi) on human orexin 1 receptors [3] was 6.68. In addition, the pKi on human orexin 2 receptors [4] was 7.16.
